Experimental data from patent publication US8686150B2 (Sanofi, priority 2011, dated 2014).

Each molecule was assayed against T1, human full-length recombinant PKC βII (Homo sapiens, UniProt P05771) (assay: Determination of PKC βII inhibition (Caliper mobility-shift kinase assay, Fluorescein-RFARKGSLRQKNV peptide substrate)). Details: example compounds at a final concentration of 1.14 μM (±0.15 μM).
T1 construct: Active human full-length recombinant PKC βII; purchased Invitrogen GmbH, Darmstadt, Germany
T1 sequence (P05771 1-673 isoform P05771-2): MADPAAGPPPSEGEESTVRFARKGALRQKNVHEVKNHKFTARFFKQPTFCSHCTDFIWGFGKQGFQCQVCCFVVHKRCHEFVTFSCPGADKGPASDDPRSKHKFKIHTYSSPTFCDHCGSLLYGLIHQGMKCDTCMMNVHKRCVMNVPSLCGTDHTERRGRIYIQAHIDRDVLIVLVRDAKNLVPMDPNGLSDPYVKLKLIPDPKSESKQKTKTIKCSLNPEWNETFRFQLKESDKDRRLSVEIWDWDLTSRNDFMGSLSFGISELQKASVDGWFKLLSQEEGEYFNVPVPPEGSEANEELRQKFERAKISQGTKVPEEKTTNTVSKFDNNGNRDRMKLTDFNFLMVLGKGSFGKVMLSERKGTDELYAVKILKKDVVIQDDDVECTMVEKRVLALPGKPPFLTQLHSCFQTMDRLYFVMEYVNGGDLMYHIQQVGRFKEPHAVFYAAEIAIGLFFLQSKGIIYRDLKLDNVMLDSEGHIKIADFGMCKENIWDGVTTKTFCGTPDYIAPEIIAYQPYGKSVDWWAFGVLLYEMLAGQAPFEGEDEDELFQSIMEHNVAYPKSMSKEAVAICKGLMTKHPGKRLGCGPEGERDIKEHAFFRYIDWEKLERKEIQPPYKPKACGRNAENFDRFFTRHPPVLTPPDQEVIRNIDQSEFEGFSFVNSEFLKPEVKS
Type: biochemical
Outline: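 Compounds were tested at 1.14 μM final. Enzyme was activated by PS, DAG and CaCl2 in Hepes pH 7.4 with MgCl2, with substrate 3 μM and ATP 120 μM as pre-mix concentrations. After 60 min at 32 °C and an EDTA stop, Caliper separation gave fractional turnover, which was normalised to no-compound and no-enzyme controls.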

| Compound | inhibition at 1.14 µM [%] |
| --- | --- |
| Cc1n[nH]c2nc(-c3ccc(O)cc3)cc(C(=O)NCCC(C)(C)N)c12 [Example 129, 6-(4-Hydroxy-phenyl)-3-methyl-1H-pyrazolo[3,4-b]pyridine-4-carboxylic acid (3-amino-3-methyl-butyl)-amide] | 69 |
| Cc1n[nH]c2nc(-c3ccc(O)cc3)cc(C(=O)NC[C@H]3CC[C@H](N)CC3)c12 [Example 130, 6-(4-Hydroxy-phenyl)-3-methyl-1H-pyrazolo[3,4-b]pyridine-4-carboxylic acid (trans-4-amino-cyclohexylmethyl)-amide] | 47 |
| Cc1n[nH]c2nc(-c3ccc(O)cc3)cc(C(=O)NC(CCN)c3ccccc3)c12 (centres unmarked) [Example 131, 6-(4-Hydroxy-phenyl)-3-methyl-1H-pyrazolo[3,4-b]pyridine-4-carboxylic acid (3-amino-1-phenyl-propyl)-amide] | 68 |
| Cc1n[nH]c2nc(-c3ccc(O)cc3)cc(C(=O)NC(CN(C)C)c3ccccc3)c12 (centres unmarked) [Example 132, 6-(4-Hydroxy-phenyl)-3-methyl-1H-pyrazolo[3,4-b]pyridine-4-carboxylic acid (2-dimethylamino-1-phenyl-ethyl)-amide] | 72 |
| Cc1n[nH]c2nc(-c3ccc(O)cc3)cc(C(=O)NCC(C)(C)N)c12 [Example 133, 6-(4-Hydroxy-phenyl)-3-methyl-1H-pyrazolo[3,4-b]pyridine-4-carboxylic acid (2-amino-2-methyl-propyl)-amide] | 89 |
| Cc1n[nH]c2nc(-c3ccc(O)cc3)cc(C(=O)NC(C)(C)C(C)(C)N)c12 [Example 134, 6-(4-Hydroxy-phenyl)-3-methyl-1H-pyrazolo[3,4-b]pyridine-4-carboxylic acid (2-amino-1,1,2-trimethyl-propyl)-amide] | 62 |
| Cc1n[nH]c2nc(-c3c(F)cc(O)cc3F)cc(C(=O)N3CCNCC3(C)C)c12 [Example 135, [6-(2,6-Difluoro-4-hydroxy-phenyl)-3-methyl-1H-pyrazolo[3,4-b]pyridin-4-yl]-(2,2-dimethyl-piperazin-1-yl)-methanone] | 96 |
| Cc1cc(O)ccc1-c1cc(C(=O)N2CCNCC2c2cc(F)cc(F)c2)c2c(C)n[nH]c2n1 (centres unmarked) [Example 136, [2-(3,5-Difluoro-phenyl)-piperazin-1-yl]-[6-(4-hydroxy-2-methyl-phenyl)-3-methyl-1H-pyrazolo[3,4-b]pyridin-4-yl]-methanone] | 100 |
| Cc1cc(O)ccc1-c1cc(C(=O)N2CCNCC2c2ccc(Br)cc2)c2c(C)n[nH]c2n1 (centres unmarked) [Example 137, [2-(4-Bromo-phenyl)-piperazin-1-yl]-[6-(4-hydroxy-2-methyl-phenyl)-3-methyl-1H-pyrazolo[3,4-b]pyridin-4-yl]-methanone] | 99 |
| Cc1cc(O)ccc1-c1cc(C(=O)N2CCNCC2c2ccc(F)cc2)c2c(C)n[nH]c2n1 (centres unmarked) [Example 138, [2-(4-Fluoro-phenyl)-piperazin-1-yl]-[6-(4-hydroxy-2-methyl-phenyl)-3-methyl-1H-pyrazolo[3,4-b]pyridin-4-yl]-methanone] | 98 |
| Cc1cc(O)ccc1-c1cc(C(=O)N2CCNCC2c2cccc(F)c2F)c2c(C)n[nH]c2n1 (centres unmarked) [Example 139, [2-(2,3-Difluoro-phenyl)-piperazin-1-yl]-[6-(4-hydroxy-2-methyl-phenyl)-3-methyl-1H-pyrazolo[3,4-b]pyridin-4-yl]-methanone] | 99 |
| COc1ccc(C2CNCCN2C(=O)c2cc(-c3ccc(O)cc3C)nc3[nH]nc(C)c23)cc1 (centres unmarked) [Example 140, [6-(4-Hydroxy-2-methyl-phenyl)-3-methyl-1H-pyrazolo[3,4-b]pyridin-4-yl]-[2-(4-methoxy-phenyl)-piperazin-1-yl]-methanone] | 98 |
| Cc1cc(O)ccc1-c1cc(C(=O)N2CCNC[C@@H]2c2cccc(F)c2)c2c(C)n[nH]c2n1 [Example 141, [(S)-2-(3-Fluoro-phenyl)-piperazin-1-yl]-[6-(4-hydroxy-2-methyl-phenyl)-3-methyl-1H-pyrazolo[3,4-b]pyridin-4-yl]-methanone] | 98 |
| Cc1cc(O)ccc1-c1cc(C(=O)N2CCNCC2(C)C)c2c(C)n[nH]c2n1 [Example 142, (2,2-Dimethyl-piperazin-1-yl)-[6-(4-hydroxy-2-methyl-phenyl)-3-methyl-1H-pyrazolo[3,4-b]pyridin-4-yl]-methanone] | 98 |
| CO[C@H]1CNC[C@@H]1NC(=O)c1cc(-c2ccc(O)cc2C)nc2[nH]nc(C)c12 [Example 143, 6-(4-Hydroxy-2-methyl-phenyl)-3-methyl-1H-pyrazolo[3,4-b]pyridine-4-carboxylic acid ((3S,4S)-4-methoxy-pyrrolidin-3-yl)-amide] | 84 |
| Cc1cc(O)ccc1-c1cc(C(=O)N2CCNCC2C(F)(F)F)c2c(C)n[nH]c2n1 (centres unmarked) [Example 144, [6-(4-Hydroxy-2-methyl-phenyl)-3-methyl-1H-pyrazolo[3,4-b]pyridin-4-yl]-(2-trifluoromethyl-piperazin-1-yl)-methanone] | 82 |
| Cc1cc(O)ccc1-c1cc(C(=O)N2CCN[C@@H](C)C2)c2c(C)n[nH]c2n1 [Example 145, [6-(4-Hydroxy-2-methyl-phenyl)-3-methyl-1H-pyrazolo[3,4-b]pyridin-4-yl]-((S)-3-methyl-piperazin-1-yl)-methanone] | 92 |
| COc1cccc(C2CNCCN2C(=O)c2cc(-c3ccc(O)cc3C)nc3[nH]nc(C)c23)c1 (centres unmarked) [Example 146, [6-(4-Hydroxy-2-methyl-phenyl)-3-methyl-1H-pyrazolo[3,4-b]pyridin-4-yl]-[2-(3-methoxy-phenyl)-piperazin-1-yl]-methanone] | 97 |
| Cc1cc(O)ccc1-c1cc(C(=O)N2CCNCC2c2cccc(F)c2)c2c(C)n[nH]c2n1 (centres unmarked) [Example 147, [2-(3-Fluoro-phenyl)-piperazin-1-yl]-[6-(4-hydroxy-2-methyl-phenyl)-3-methyl-1H-pyrazolo[3,4-b]pyridin-4-yl]-methanone] | 96 |
| Cc1cc(O)ccc1-c1cc(C(=O)NCC2(N)CCCCCC2)c2c(C)n[nH]c2n1 [Example 148, 6-(4-Hydroxy-2-methyl-phenyl)-3-methyl-1H-pyrazolo[3,4-b]pyridine-4-carboxylic acid (1-amino-cycloheptylmethyl)-amide] | 85 |
| CCC1(NC(=O)c2cc(-c3ccc(O)cc3C)nc3[nH]nc(C)c23)CCCNC1 (centres unmarked) [Example 149, 6-(4-Hydroxy-2-methyl-phenyl)-3-methyl-1H-pyrazolo[3,4-b]pyridine-4-carboxylic acid (3-ethyl-piperidin-3-yl)-amide] | 86 |
| Cc1cc(O)ccc1-c1cc(C(=O)N2CCNC[C@H]2c2ccccc2)c2c(C)n[nH]c2n1 [Example 150, [6-(4-Hydroxy-2-methyl-phenyl)-3-methyl-1H-pyrazolo[3,4-b]pyridin-4-yl]-((R)-2-phenyl-piperazin-1-yl)-methanone] | 100 |
| Cc1cc(O)ccc1-c1cc(C(=O)N2CCNCC2c2ccccc2F)c2c(C)n[nH]c2n1 (centres unmarked) [Example 151, [2-(2-Fluoro-phenyl)-piperazin-1-yl]-[6-(4-hydroxy-2-methyl-phenyl)-3-methyl-1H-pyrazolo[3,4-b]pyridin-4-yl]-methanone] | 96 |
